Experimental data as given in article PMC6265740, “Biochemical and Anti-Triple Negative Metastatic Breast Tumor Cell Properties of Psammaplins” (Marine Drugs, 2018).
pIC50: −log10 of the molar value. “Also recorded” adds a separate entry of the source. Blank lines part the entries; values can stand above or below the compound they belong to.

Assays:
VEGF protein = experiment: ELISA of cellular and secreted VEGF proteins in T47D cells; format: cell-based, human; conditions: normalized to cellular proteins
Source text: (§1) Around 100 genes have been identified as HIF-1 target genes that encode proteins involved in various aspects of cellular physiology. While most of these genes are regulated in a cell type-specific manner, some are induced upon HIF-1 activation in most cell types. Based on availability and potency, compound 4 (a stereoisomer of 2) was selected for follow-up studies. The effects of 4 on the expression of HIF-1 target genes cyclin dependent kinase inhibitor 1A (CDKN1A) and vascular endothelial growth factor A (VEGFA) were examined by quantitative real time RT-PCR (Figure 2). The HIF-1 activator 1,10-phen (10 μM) and the pan-HDAC inhibitor TSA (0.1 and 1 μM, respectively) were included as positive controls. In T47D cells, 4 and TSA each increased the levels of CDKN1A mRNA in a concentration-dependent manner (2.9-fold for 4 at 10 μM and 7.2-fold for TSA at 1 μM, Figure 2A). In contrast, neither 4 nor TSA exerted greater than 20% effect on the levels of VEGF mRNA (Figure 2B). The gene VEGF encodes vascular endothelial growth factor A (a potent angiogenic factor) and agents that inhibit VEGF are in clinical use for cancer. The expression of cellular and secreted VEGF proteins was examined in T47D cells by ELISA assay.
Figure 2 Effects of 4 and trichostatin A (TSA) on HIF-1 target gene expression. T47D cells were exposed to 4 and TSA at the specified concentrations for 16 h. The compound 1,10-phen (10 µM) was included as a positive control. The levels of cyclin dependent kinase inhibitor 1A (CDKN1A) (A) and vascular endothelial growth factor (VEGF) (B) mRNA following treatments were determined by quantitative real time RT-PCR. Relative levels of target gene mRNA normalized to an internal control (18S rRNA) are shown as average ± standard deviation (n = 3, one representative experiment). The levels of cellular (C) and secreted VEGF protein (D) were determined by ELISA and normalized to the amount of cellular proteins. Data shown are average + standard deviation (n = 3). An asterisk “*” indicates p < 0.05 when compared to the media control.
(§2) The effects of test samples on HIF-1 target gene expression were assessed in T47D cells. To determine the levels of CDKN1A and VEGF mRNA, quantitative real-time RT-PCR was performed as described. To determine the levels of cellular and secreted VEGF proteins, T47D cells were exposed to compounds as described, the levels of VEGF proteins in the conditioned medium and cell lysate samples determined by ELISA [21], the amount of proteins in the cell lysate samples quantified using a micro BCA assay kit (Thermo Fisher Scientific, Rockford, IL, USA), and the level of VEGF proteins normalized to that of cellular proteins.

CDKN1A mRNA = experiment: Quantitative real time RT-PCR of CDKN1A mRNA in T47D cells; format: cell-based, human; conditions: 10 μM, 16 h
Source text: Around 100 genes have been identified as HIF-1 target genes that encode proteins involved in various aspects of cellular physiology. While most of these genes are regulated in a cell type-specific manner, some are induced upon HIF-1 activation in most cell types. Based on availability and potency, compound 4 (a stereoisomer of 2) was selected for follow-up studies. The effects of 4 on the expression of HIF-1 target genes cyclin dependent kinase inhibitor 1A (CDKN1A) and vascular endothelial growth factor A (VEGFA) were examined by quantitative real time RT-PCR (Figure 2). The HIF-1 activator 1,10-phen (10 μM) and the pan-HDAC inhibitor TSA (0.1 and 1 μM, respectively) were included as positive controls. […]
(§3) Figure 2 Effects of 4 and trichostatin A (TSA) on HIF-1 target gene expression. […] The levels of cyclin dependent kinase inhibitor 1A (CDKN1A) (A) and vascular endothelial growth factor (VEGF) (B) mRNA following treatments were determined by quantitative real time RT-PCR. […] The levels of cellular (C) and secreted VEGF protein (D) were determined by ELISA and normalized to the amount of cellular proteins. […]
The effects of test samples on HIF-1 target gene expression were assessed in T47D cells. To determine the levels of CDKN1A and VEGF mRNA, quantitative real-time RT-PCR was performed as described. […]

VEGF mRNA = experiment: Quantitative real time RT-PCR of VEGF mRNA in T47D cells; format: cell-based, human; conditions: 16 h, concentrations tested
Source text: as §1, with “The gene VEGF encodes vascular endothelial growth factor A (a potent angiogenic factor) and agents that inhibit VEGF are in clinical use for cancer. The expression of cellular and secreted VEGF proteins was examined in T47D cells by ELISA assay.” left out
as §3, §2

HIF-1 = experiment: T47D cell-based reporter assay (pHRE-luc) for HIF-1 activity; set-up: species or system human; conditions: for HIF-1 activation (highest level) / normalized ratio of pHRE-luc/pGL3-control: 3 μM; for normalized ratio of pHRE-luc/pGL3-control: T47D
Method: Cellular adaptation to hypoxia (low oxygen tension) is primarily mediated via the transcription factor hypoxia-inducible factor-1 (HIF-1), that regulates oxygen homeostasis by activating the expression of genes that increase oxygen availability and those that decrease oxygen consumption. […] In a T47D cell-based reporter assay, a lipid extract sample of the sponge Dendrilla lacunosa activated HIF-1 by 3.56-fold (NIH collection No. C025691, 10 μg mL^−1). Bioassay-guided fractionation of the extract sample (2.6 g) and chemical structure elucidation afforded five known compounds psammaplin E (1), (E,Z)-psammaplin A (2), (E,E)-psammaplin K (3), (E,E)-psammaplin A (4), and bisaprasin (5). To determine the effects of 1–5 on HIF-1 activity, concentration-response studies were performed in a T47D cell-based reporter assay (Figure 1B). An iron chelator (1,10-phenanthroline, 10 μM) was included as a positive control. Compounds 1–4 activated HIF-1 in a biphasic manner. […] Hypoxia (1% O2) and chemical hypoxia (iron chelators or transition metals) represent two common stimuli that activate HIF-1 [24, 25, 26]. Further studies were performed to determine the effects of 1–5 on HIF-1 activity in the presence of other stimuli (1,10-phenanthroline, Figure 1C; hypoxia, Figure 1D). While 1–4 acted synergistically with 1,10-phenanthroline and hypoxia to activate HIF-1, a biphasic pattern of activation similar to that in the absence of stimulus […] was observed. […] Previous studies reported that psammaplins inhibit histone deacetylase (HDAC) enzymes. To determine if HDAC inhibition non-specifically activates HIF-1, concentration-response studies were conducted in T47D cells transfected with the pGL3-control plasmid. […] One possible scenario is that these compounds incur significant amount of cellular stress at higher concentrations, leading to the inhibition of gene expression in general.
Figure 1 Concentration-dependent biphasic effects of 1–4 on HIF-1 activation. (A) Structures of psammaplins isolated from Dendrilla lacunosa. (B) Concentration-response results of 1–5 in T47D cells transfected with pHRE-luc for HIF-1 activity. Test compounds were added at the increasing concentrations of 0.1, 0.3, 1, 3, 10, and 30 µM, as specified. The positive control 1,10-phenanthroline (1,10-phen) was used at 10 µM. Data shown are average ± standard deviation (n = 3). (C) Similar to described in (B) except that the pHRE-luc transfected T47D cells were exposed to test compounds in the presence of 10 µM 1,10-phen, and the data were normalized to the positive control (1,10-phen). (D) Similar to described in (C) except that hypoxic exposure (1% O2: 5% CO2: 94% N2, 16 h) was applied in place of 1,10-phen. (E) As described in (B) except that T47D cells were transfected with the pGL3-control construct. An asterisk “*” indicates p < 0.05 when compared to the controls (“Media” for B, D, and E; and “1,10-phen” for C).
To monitor HIF-1 activity, T47D cells were transfected with the pHRE3-TK-Luc construct and the cell-based luciferase reporter assay was performed as described. Cells were exposed to test compounds in the absence and presence of 1,10-phenanthroline (10 μM) or hypoxic conditions (1% O2: 5% CO2: 94% N2) for 16 h. The cells were lysed and luciferase activity determined with a commercial kit (Promega, Madison, WI, USA). For the cell-based control reporter assay, T47D cells were transfected with the pGL3-control construct (Promega, Madison, WI, USA), exposed to test compounds for 16 h, and the luciferase reporter assay performed as described.

HDAC = experiment: MDA-MB-435 cell-based HDAC assay (HDAC-Glo); conditions: MDA-MB-435 cells, 30 min incubation, n = 6 pooled from two experiments
Method: Test compounds were added at specified concentrations to exponentially grown cells plated in 96-well plates. After 30 min incubation, the HDAC activity was determined using a commercial kit (HDAC-Glo™, Promega, Madison, WI, USA) and normalized to that of the dimethyl sulfoxide (DMSO) solvent control.
Exponentially grown cells were seeded at the density of 5000 cells/well into 96-well plates (Corning, Corning, NY, USA) and incubated overnight. Compounds dissolved in DMSO were added to achieve the specified final concentrations (total volume: 100 μL, DMSO: 0.5%). The incubation continued for 30 min at 37 °C and the HDAC activity determined using a commercial luminescent assay (HDAC-Glo™, Promega, Madison, WI, USA).

BoM spheroids = experiment: Cultrex 3D spheroid cell invasion assay; format: cell-based, human
Method: In order to form metastatic lesions, metastasis-initiating tumor cells must invade and intravasate into the lymphatic vasculature and/or blood vessels. Psammaplins were evaluated in a Cultrex® 3-D cell invasion assay that monitors the invasion and migration of tumor cells grown as spheroids, which closely model in vivo pathophysiological conditions.
Figure 5 Inhibition of bone metastatic BoM cell invasion. Tumor cell spheroids formed in a special spheroid formation extracellular matrix (ECM) were embedded in an invasion matrix containing 10% fetal bovine serum (FBS) in the presence and absence of compounds at the specified concentrations. Four days later (T96), cell invasion was recorded microscopically (the bar at the bottom right represents 100 µm).
The 3D spheroid cell invasion assay was performed using a commercial kit, following the manufacturer’s instructions (Cultrex® 3D Spheroid Cell Invasion Assay, Trevigen, Gaithersburg, MD, USA). Briefly, exponentially grown MDA-MB-231, LM, BoM, and BrM cells were trypsinized, collected, and resuspended in serum-free DMEM/F12 media. For spheroid formation, 3000 cells were added in a volume of 50 µL serum-free DMEM/F12 media with 1× spheroid formation solution/well into a pre-cooled 96-well plate. The plate was centrifuged at 100× g for 5 min at 4 °C, incubated at 37 °C for 24 h, and the spheroids imaged using an Axiovert 40 CFL microscope (Zeiss, Oberkochen, Germany). The plate was placed on ice, the invasion mix added in a volume of 50 µL/well, centrifuged at 350× g for 5 min at 4 °C, and incubated at 37 °C for 1 h. Test compounds and controls were diluted to two times the final concentrations in DMEM/F12 media supplemented with FBS (10%) and antibiotics, and added in a volume of 100 µL/well. The incubation continued for another 4 days at 37 °C and the cells/spheroids imaged (T96).

[1] = test system: T47D, MDA-MB-231, LM, BoM, BrM cells; experiment: Clonogenic assay; format: cell-based, human; conditions: 24 h exposure, 10 days; 1 µM paclitaxel and TSA, 10 µM 1–5
Method: The effects of psammaplins on the colony-forming ability of single cells were assessed in a clonogenic assay. Cells seeded at low density were exposed to test compounds at the specified concentrations for 24 h. The conditioned media were replaced with growth media and the colonies formed from surviving single cells in 10 days.
Figure 4 Effects of 1–5 and TSA (trichostatin A) on colony formation. Cells plated at low density were exposed to compounds (24 h) at specified concentrations (1 µM for paclitaxel and TSA, and 10 µM for 1–5). After a period of ten days, the cells were fixed and stained.
For the clonogenic assay, exponentially grown cells were seeded at the density of 1000 cells/well into 6-well plates (Cellstar®, Greiner Bio-One GmbH, Kremsmünster, Austria) and incubated at 37 °C for 4 h to allow the cells to adhere. Compound addition was similar as above. After 24 h, the compound-containing conditioned media were replaced with fresh medium containing FBS (10%) and antibiotics. The incubation continued for another 10 days with a change of fresh medium every 5 days, the cells were fixed with methanol and stained with crystal violet (1 mg/mL in 20% ethanol), and the images were acquired with a Kodak digital camera.

[2] = T47D pHRE-luc, 16 h, no stimulus, n = 3

pIC50 (HDAC): 7.43
SMILES: O=C(NCCSSCCNC(=O)/C(Cc1ccc(O)c(Br)c1)=N/O)/C(Cc1ccc(O)c(Br)c1)=N/O [Compound 4, (E,E)-psammaplin A]
VEGF expression, cellular protein (VEGF protein): None of the HDAC inhibitors examined (4 and TSA) increased VEGF protein levels | VEGF expression, secreted protein (VEGF protein): None of the HDAC inhibitors examined (4 and TSA) increased VEGF protein levels | increase in CDKN1A mRNA level (CDKN1A mRNA): 2.9 fold | effect on the levels of VEGF mRNA (VEGF mRNA): ≤ 20% | HIF-1 activation (highest level) (HIF-1; [2]): 11.01 ± 0.71 fold | normalized ratio of pHRE-luc/pGL3-control (HIF-1): 2.30 fold | invasion of BoM spheroids into the extracellular matrix (BoM spheroids; 96 h (T96), 4 and TSA at 48 h proliferation IC50): inhibited the invasion of BoM spheroids; also recorded: inhibited this invasion

pIC50 (HDAC): 6.02
SMILES: O=C(NCCSSCCNC(=O)/C(Cc1cc(Br)c(O)c(-c2cc(C/C(=N\O)C(=O)NCCSSCCNC(=O)/C(Cc3ccc(O)c(Br)c3)=N/O)cc(Br)c2O)c1)=N/O)/C(Cc1ccc(O)c(Br)c1)=N/O [Compound 5, bisaprasin]
HIF-1 activation (HIF-1; T47D pHRE-luc, 30 μM, 16 h, no stimulus, n = 3): 2.17 ± 0.13 fold | effect on HIF-1 activity in the presence of other stimuli (HIF-1; T47D pHRE-luc, with 1,10-phenanthroline (10 µM) or hypoxia (1% O2), 16 h): inhibited HIF-1 activation at higher concentrations

pIC50 (HDAC): 7.72
SMILES: O=C(NCCSSCCNC(=O)C(Cc1ccc(O)c(Br)c1)=NO)C(Cc1ccc(O)c(Br)c1)=NO [Compound 2, (E,Z)-psammaplin A]
HIF-1 activation (highest level) (HIF-1; [2]): 12.32 ± 0.70 fold | normalized ratio of pHRE-luc/pGL3-control (HIF-1): 2.38 fold

SMILES: CC(=O)O[C@H]1C(=O)[C@@]2(C)[C@H]([C@H](OC(=O)c3ccccc3)[C@]3(O)C[C@H](OC(=O)[C@H](O)[C@@H](NC(=O)c4ccccc4)c4ccccc4)C(C)=C1C3(C)C)[C@]1(OC(C)=O)CO[C@@H]1C[C@@H]2O [paclitaxel]
colony formation [1]: blocked colony formation in all cell lines | size of the spheroids (BoM spheroids; 96 h, in comparison to the HDAC inhibitors): more pronounced decrease in the size of the spheroids
